Experimental data taken from patent US11654110B2, “Composition and methods for the treatment of peripheral nerve injury” (UNIVERSITY OF ROCHESTER, priority 2013, dated 2023).

Columns and labels:
[1] = test system: Schwann cell-DRG neuron co-cultures; experiment: DRG neuron and Schwann cell myelinating co-cultures, MBP+ myelin quantification; format: cell-based
Description: Primary Schwann Cell Culture.
Dorsal Root Ganglia (DRG) Neuron Cell Culture. DRG neurons were isolated from E18 embryos of Sprague-Dawley rats and 5,000 neurons were seeded in laminin/poly-L-lysine coated 48 well plates. Primary DRG neurons were maintained in Neurobasal media supplemented with B27 containing antioxidants, 50 ng/mL NGF, and 1 μM Ara-C. 1 μM Ara-C treatment was performed three times for two days each time following two days of fresh medium without Ara-C to eliminate fibroblasts. After two weeks, DRG neurons with extensive axons were seeded with Schwann cells for myelination tests (Syed et al., The Journal of Neuroscience 30:6122-6131 (2010)).
DRG Neuron and Schwann Cell Myelinating Co-cultures. Thirty thousand (30,000) Schwann cells were plated onto the DRG neurons per well. Co-cultures were maintained in differentiation media (DMEM/F12 (1:1), 50 ng/mL NGF, 1× N2 supplement) for a week. Co-cultures were then changed to myelinating medium (MEM, 50 ng/mL NGF, 50 μg/mL ascorbic acid, 10% FBS) for two weeks. Medium was changed every two days (Syed et al., The Journal of Neuroscience 30:6122-6131 (2010)). EPO was added three times at day 6 of differentiating stage, day 1, and day 3 of myelinating stage.
Myelin Quantification. To quantify the extent of myelination in co-cultures, the total number of MBP+ myelin was counted within the whole culture well and normalized by the total cell number (DAPI+).
To determine whether EPO enhances Schwann cell-mediated myelination directly we exposed Schwann cell-DRG neuron co-cultures to various concentrations of EPO (1, 10, 100 unit/mL of EPO). In FIG. 15A, every single short thread-like MBP+ staining cells representing a myelin formed by a single myelinating Schwann cell wrapped around the axon.

crushed sciatic nerve [2] = experiment: Sciatic nerve crush injury, sciatic function index (SFI) by walking track analysis; format: in vivo, mice
Description: There are also possible effects of the 4-AP on nerve injuries suffered more acutely. Acute nerve injury is both common and difficult to treat. One type of acute peripheral nerve injury with a murine model available for study is the sciatic nerve crush injury model in mice and rats. In this model, the nerve is crushed with a variable amount of force which creates a measurable functional deficit in gait. This deficit is measured using a sciatic function index which is an accepted and validated measure of the functional effects of the injury.
(§1) Mouse Model of Peripheral Nerve Injury. All procedures were approved by the University of Rochester Committee on Animal Resources. Female 10-week-old C57BL6 mice were performed sciatic nerve crush injury on the left hindlimb and the sham-surgery on the other one. All extensive surgery procedures were as described previously (Elfar et al., The Journal of Bone and Joint Surgery, 90: 1644-1653 (2008)). rhEPO was administered immediately at a dose of 5000 U/kg (Juul, Acta Paediatrica 91:36-42 (2002), Bianchi et al., PNAS 101:823-828 (2004), and Elfar et al., The Journal of Bone and Joint Surgery, 90:1644-1653 (2008)).
Sciatic Function Index (SFI) Determined by Walking Track Analysis. The assessment of motor function recovery was performed by calculating the sciatic function index (SFI). Walking track analysis was performed according to a published model that quantifies sciatic nerve function performance (de Medinaceli et al., Exp. Neurol. 77:634-643 (1982)). The operating procedure is extensively described previously (Elfar et al., The Journal of Bone and Joint Surgery, 90:1644-1653 (2008)). In brief, individual mouse footprints were obtained by painting each foot and walked down the 50 cm path in a narrow corridor lined with paper. Gaits were measured from the resulting footprints to get (1) toe spread (TS) (first through fifth toes), (2) print length (PL), and (3) intermediate toe spread (ITS) (second, third, and fourth toes) of both limbs (Gladman et al., The Journal of Neuroscience, 32:563-571 (2012)). All three measurements from the three most clearly inked foot prints per run were taken from the normal (N) and experimental (E) sides, and the SFI were calculated using the following formula: SFI=−38.3((EPL−NPL)/NPL)+109.5((ETS−NTS)/NTS)+13.3((EIT−NIT)/NIT)−8.8 where E is the injured limb and N is the control limb.

crushed sciatic nerve [3] = experiment: Immunofluorescent staining of myelinated (P0+) and total (neurofilament+) axons in crushed sciatic nerve; format: in vivo, mice; details: systemic EPO directly after crush; 7 days post-injury
Source text: FIGS. 14A, 14B, and 14C are images and a graph showing EPO supported preservation of myelin within crushed nerves. FIG. 14A is an image of the immunofluorescent staining of destroyed myelin sheath at the injured site 7 days post-injury. FIG. 14B is an image showing immunofluorescent staining of myelinated axons and total axons in the cross sections of sciatic nerves 7 days post-injury. Representative images of the cross sections of the sciatic nerves (a, d: healthy nerve; b, c, e, f: crushed nerve). FIG. 14C is a graph showing the ratio of the number of myelinated axon to total axons of crushed sciatic nerves with or without EPO administration. (unpaired t-test, n=3, three animals for each set, p<0.01).
as §1
To work towards the underlying action by which EPO works, it was noticed that the speed of recovery in injured mice was too rapid to be attributable to axonal regeneration. 4-aminopyridine (4-AP) is a potassium channel blocker which enables demyelinated axons to conduct impulses, and thus can be used to identify injuries in which whether there exist anatomically intact but demyelinated axons. Mice receiving a sciatic nerve crush injury, performed poorly in SFI tests 3 days after injury. […] The effect of 4-AP raises the possibility that the benefits of EPO may be due to preservation of myelin and/or improvement of remyelination. […] In untreated mice only 25% of axons (neurofilament+) were associated with myelin (P0+) whereas EPO treatment raised this ratio to 60%.

[4] = test system: glutathione S-transferase and gamma-glutamylcysteine synthetase; details: 100 U/mL EPO, isolated Schwann cell cultures
Source text: (unpaired t-test, n=4, p<0.01) FIG. 15D is a gel image of immunoblotting of glutathione S-transferase and gamma-glutamylcysteine synthetase levels in Schwann cells with 100 U/mL EPO treatment.

compressed nerves = experiment: Nerve conduction velocity of chronically compressed nerve (sleeve around the nerve); format: in vivo, mice; details: 4-AP IP single bolus; 7, 9, 12 weeks of compression
Description: FIGS. 1A, 1B and 1C show graphs of nerve conduction velocity at 7 weeks (FIG. 1A), 9 weeks (FIG. 1B) and 12 weeks (FIG. 1C) of compression and treatment with high dose 4-AP (HD), low dose of 4-AP (LD), and saline (Sal). 4-AP was administered IP in a single dose as a bolus.
The concept that 4-AP may have a role in the treatment of compressed nerves emanates from data showing that the conduction velocity of compressed nerves can respond strongly to pharmacologic treatment with this agent. […] Therefore, 4-AP may be used locally or systemically for the treatment of chronic compression injury.

[5] = intravenous and oral gelatin-based capsule treatments; cited from earlier work

Molecule: CC(=O)NC(C(=O)O)C(C)(C)SN=O (racemic) [SNAP, S-Nitroso-N-acetyl-DL-penicillamine, reference compound]
- baseline myelination ([1]; 100 μM SNAP): robust decrease in baseline myelination
- cell death ([1]; 100 μM SNAP): significant cell death was not observed

Molecule: EPO: Recombinant human erythropoietin, 30.4-kDa hematopoietic glycoprotein
- functional improvements in SFI over control groups (crushed sciatic nerve [2]; local EPO in fibrin glue vehicle at the site of crush injury, 0.5 U): 15%
- SFI function, higher than in untreated animals (crushed sciatic nerve [2]; single subcutaneous EPO 5000 U/kg directly after injury, 7 days after injury): 20%
- SFI more restored compared to control group (crushed sciatic nerve [2]; single subcutaneous EPO 5000 U/kg directly after injury, day 14 after injury): 15%
- hind limb / foot appearance (crushed sciatic nerve [2]; systemic EPO 5000 U/kg, seven days post-surgery): close-to-normal appearance
- number of axons (crushed sciatic nerve [3]): without significantly altering the number of axons
- number of myelinated fibers versus untreated (crushed sciatic nerve [3]): almost tripled
- ratio of myelinated (P0+) axons to total axons (neurofilament+) (crushed sciatic nerve [3]): 60%
- myelin formation under NO stress ([1]; 100 μM SNAP with 100 U/mL EPO): notably recovered myelin formation
- total number of MBP+ myelin ([1]; 1, 10, 100 unit/mL of EPO): increased the total number of the MBP+ myelin in co-culture and was found to be dose-dependent
- glutathione S-transferase and gamma-glutamylcysteine synthetase levels [4]: up-regulated

Molecule: Nc1ccncc1 [4-AP, 4-aminopyridine]
- conduction velocity of compressed nerve (ratio to contralateral uninjured nerve) (compressed nerves): strong effects of 4-AP administration was seen
- sciatic function index (gait) (crushed sciatic nerve [2]; 4-AP administered systemically on day 3 or day 5 after crush injury): large improvement in the function of the animals gait
- SFI (crushed sciatic nerve [2]; intraperitoneal 100 μg 4-AP, 3 days after injury): significant transient improvement in SFI
- plasma half-life [5]: 3 to 4 h
- time to maximum plasma concentration [5]: about 1 hour
